According to ChEMBL document CHEMBL1137538, “Natural triterpenoids from Cecropia lyratiloba are cytotoxic to both sensitive and multidrug resistant leukemia cell lines” (Bioorg Med Chem, 2007):

Tests used:
[1] = system: K562; test: Cytotoxicity against human K562 cells assessed as cell viability after 48 hrs by MTT assay; format: functional, cell-based; conditions: K562, 48 h
[2] = Cytotoxicity against human multidrug resistant Lucena1 cells assessed as cell viability after 48 hrs by MTT assay; format: functional, cell-based; conditions: Lucena 1, 48 h
[3] = system: HEp-2; test: Cytotoxicity against human HEp2 cells assessed as cell viability; format: functional, cell-based
[4] = system: Caco-2; test: Cytotoxicity against human Caco-2 cells assessed as cell viability; format: functional, cell-based
[5] = system: A549; test: Cytotoxicity against human A549 cells assessed as cell viability; format: functional, cell-based
[6] = system: K562; test: Induction of apoptosis in human K562 cells assessed as DNA fragmentation at 10 ug/mL by FACS analysis; format: functional
[7] = system: K562; test: Induction of apoptosis in human K562 cells assessed as DNA fragmentation at 25 ug/mL by FACS analysis; format: functional
[8] = system: K562; test: Induction of apoptosis in human K562 cells assessed as DNA fragmentation at 50 ug/mL by FACS analysis; format: functional
[9] = Induction of apoptosis in human multidrug resistant Lucena1 cells assessed as DNA fragmentation at 10 ug/mL by FACS analysis; format: functional
[10] = Induction of apoptosis in human multidrug resistant Lucena1 cells assessed as DNA fragmentation at 25 ug/mL by FACS analysis; format: functional
[11] = Induction of apoptosis in human multidrug resistant Lucena1 cells assessed as DNA fragmentation at 50 ug/mL by FACS analysis; format: functional
[12] = system: K562; test: Activation of caspase 3 in human K562 cells at 50 ug/mL after 4 hrs by flow cytometry; format: functional
[13] = system: K562; test: Activation of caspase 3 in human K562 cells at 50 ug/mL after 8 hrs by flow cytometry; format: functional
[14] = system: K562; test: Activation of caspase 3 in human K562 cells at 50 ug/mL after 12 hrs by flow cytometry; format: functional
[15] = system: K562; test: Activation of caspase 3 in human K562 cells at 50 ug/mL after 24 hrs by flow cytometry; format: functional

CC(=O)O[C@H]1[C@H](O)C[C@]2(C)[C@H]3CC=C4[C@H]5[C@](C(=O)O)(CC[C@@H](C)[C@@]5(C)O)CC[C@@]4(C)[C@]3(C)CC[C@H]2C1(C)C
IC50 [1]: 56.6 µM
IC50 [2]: 72.9 µM

CC(=O)O[C@@H]1C[C@]2(C)[C@H]3CC=C4[C@H]5[C@](C(=O)O)(CC[C@@H](C)[C@@]5(C)O)CC[C@@]4(C)[C@]3(C)CC[C@H]2C(C)(C)[C@H]1O
IC50 [1]: 38.4 µM
IC50 [2]: 41.4 µM

C[C@@H]1CC[C@]2(C(=O)O)CC[C@]3(C)C(=CC[C@@H]4[C@@]5(C)C[C@@H](O)[C@@H](O)C(C)(C)[C@@H]5CC[C@]43C)[C@@H]2[C@]1(C)O [EUSCAPHIC ACID]
IC50 [1]: 76.7 µM
IC50 [2]: 83.8 µM
IC50 [3]: 106 µM
IC50 [4]: 104 µM
IC50 [5]: 95.6 µM
Activity [6]: 13.58%
Activity [7]: 27.75%
Activity [8]: 62.93%
Activity [9]: 10.48%
Activity [10]: 30.87%
Activity [11]: 63.57%
Activity [12]: 8.04%
Activity [13]: 13.87%
Activity [14]: 18.69%
Activity [15]: 36.33%

C[C@@H]1CC[C@]2(C(=O)O)CC[C@]3(C)C(=CC[C@@H]4[C@@]5(C)C[C@@H](O)[C@H](O)C(C)(C)[C@@H]5CC[C@]43C)[C@@H]2[C@]1(C)O [TOMENTIC ACID]
IC50 [1]: 89.4 µM
IC50 [2]: 80.2 µM

CC[C@]1(O)C[C@H]2CN(CCc3c([nH]c4ccccc34)[C@@](C(=O)OC)(c3cc4c(cc3OC)N(C=O)[C@H]3[C@@](O)(C(=O)OC)[C@H](OC(C)=O)[C@]5(CC)C=CCN6CC[C@]43[C@@H]65)C2)C1 [VINCRISTINE]
IC50 [1]: 0.006 µM
IC50 [2]: > 0.1 µM
